# Results: patent US12358892B2, “Metalloenzyme inhibitors for treating cancers, Alzheimer's disease, hemochromatosis, and other disorders” (Miralogx LLC, priority 2020, dated 2025)
# Entries after “also recorded” stand apart in the source; their conditions may differ.
# Legend:
# B cells = assay: BioMAP proliferation readout, B cells; assay type: cell-based, human; settings: 100 μM, 33 μM, 11 μM
# Source text: (§1) The X-axis lists the quantitative protein-based biomarker readouts measured in each system. The Y-axis represents a log-transformed ratio of the biomarker readouts for the drug-treated sample (n=1) over vehicle controls (n≥6). The grey region around the Y-axis represents the 95% significance envelope generated from historical vehicle controls. Biomarker activities are annotated when two or more consecutive concentrations change in the same direction relative to vehicle controls, are outside of the significance envelope, and have at least one concentration with an effect size >20% (|log 10 ratio|>0.1). Biomarker key activities are described as modulated if these activities increase in some systems, but decrease in others. […] As summarized in Table 2 below, the compound was active with 35 annotated readouts. […]
# (§2) Human primary cells in BioMAP® systems are used at early passage (passage 4 or earlier) to minimize adaptation to cell culture conditions and preserve physiological signaling responses. […] Test agents prepared in either DMSO (small molecules; final concentration ≤0.1%) or PBS (biologics) are added at the indicated concentrations 1-hr before stimulation, and remain in culture for 24-hrs or as otherwise indicated (48-hrs, MyoF system; 72-hrs, BT system (soluble readouts); 168-hrs, BT system (secreted IgG)). […]
# [1] = system: human primary endothelial cells; assay: BioMAP proliferation readout, endothelial cells; assay type: cell-based; settings: 100 μM, 33 μM, 11 μM
# Source text: as §1, §2
# [2] = system: HT-29 colorectal adenocarcinoma cell line; assay: BioMAP Oncology CRC panel (StroHT29 and VascHT29 systems); assay type: cell-based, human
# Source text: The BioMAP® oncology system used in this Example is a coculture of primary human immune cells with primary tissue cells in the presence of the Colorectal Cancer (CRC) cells. In particular, The BioMAP® Oncology CRC panel models the interactions between the immune-stromal (fibroblasts) and immune-vascular (endothelial cells) environments in the context of colorectal cancer (HT-29 colorectal adenocarcinoma cell line). The interactions between tumor cells, stimulated immune cells (peripheral blood mononuclear cells [PBMC]), and the host stromal network (human neonatal dermal fibroblasts [HDFn]) are captured in the StroHT29 system. In parallel, the VascHT29 system captures the interactions between tumor cells, activated immune cells and the vascular tissue (human umbilical vein endothelial cells [HUVEC]). The biomarkers selected for the BioMAP® Colorectal Cancer (CRC) panel inform on activities related to inflammation, immune-function, tissue remodeling and metastasis in the context of a host tumor-microenvironment.
# A signature BioMAP® profile that is reflective of the changes in protein biomarker readouts within an individual system is generated for each test agent. Biomarker readouts selected for therapeutic and biological relevance are predictive for disease outcomes or specific drug effects, and have been validated using agents with known clinical efficacy. Each readout is measured quantitatively by immune-based receptors, cytokines, chemokines, matrix molecules and enzymes. In total, the 41 biomarker readouts in the CRC panel capture the biological changes that occur within the physiological context of each particular BioMAP® system.
# The BioMAP® CRC panel allows a focused in vitro evaluation of the impact of an agent in a model system that includes the hierarchical signaling networks that exist between interacting pathways and cells in a disease relevant setting. To represent the changes that are occurring in these complex systems, biomarker readouts with the ability to integrate and distinguish changes in different regulatory networks have been selected.
# Data analysis of the results was performed as described in detail above in Example 3.1. Briefly, biomarker activities are annotated when at least one concentration of the test agent is outside of the significance envelope with an effect size >20% compared to the vehicle control (|log 10 ratio|>0.1) and a p-value <0.01. Cytotoxic conditions are noted when total protein levels decrease by more than 50% (log 10 ratio of SRB <−0.3). Biomarker key activities are described as modulated if these activities increase in some systems, but decrease in others.
# [3] = 7.4 μM, 22 μM, 67 μM, Angiogenesis related activities
# [4] = 7.4 μM, 22 μM, 67 μM, Immune-related activities
# [5] = 7.4 μM, 22 μM, 67 μM, Inflammation related activities
# [6] = 7.4 μM, 22 μM, 67 μM, Matrix remodeling activities
# [7] = 7.4 μM, 22 μM, 67 μM, Tumor-related activities
smiles,measurement,setting,value
"C1=NC(c2cncc(C3CCC=N3)c2)CC1 (centres unmarked) [3,5-bis(3,4-dihydro-2H-pyrrol-2-yl)pyridine]",antiproliferative effect on B cells,B cells,antiproliferative
same,antiproliferative effect on human primary endothelial cells,[1],antiproliferative
same,Decreased activity: PAI-I,[2]; [3],decreased; also recorded: PAI-I
same,Decreased activity: tPA,[2]; [3],decreased and tPA
same,Decreased activity: uPA,[2]; [3],decreased and uPA
same,Increased activity: sVEGF,[2]; [3],increased; also recorded: SVEGF
same,Decreased Activity: sIL-6,[2]; [4],decreased
same,Decreased activity: CD40,[2]; [4],decreased and CD40
same,Decreased activity: CD69,[2]; [4],decreased and CD69
same,Decreased activity: sGranB,[2]; [4],decreased; also recorded: sGranB
same,Decreased activity: sIFNγ,[2]; [4],decreased; also recorded: SIFNG
same,Decreased activity: sIL-2,[2]; [4],decreased; also recorded: sIL-2
same,Decreased activity: sIL-10 (Table 8) / sIL-1β,[2]; [4],decreased
same,Decreased activity: sIL-17A,[2]; [4],decreased
same,Decreased activity: IP-10,[2]; [5],decreased; also recorded: IP-10
same,Decreased activity: MCP-1,[2]; [5],decreased; also recorded: MCP-1
same,Decreased activity: MIG,[2]; [5],decreased and MIG
same,Decreased activity: VCAM-1,[2]; [5],decreased; also recorded: VCAM-1
same,Decreased activity: Collagen I,[2]; [6],decreased; also recorded: Col-I
same,Decreased activity: Collagen III,[2]; [6],decreased and Col-
same,Decreased activity: Collagen IV,[2]; [6],decreased; also recorded: Col-IV
same,Decreased activity: MMP9,[2]; [6],decreased and MMP9
same,Decreased activity: TIMP2,[2]; [6],decreased; also recorded: TIMP2
same,Decreased activity: CEACAM5,[2]; [7],decreased; also recorded: CEACAM5
same,Decreased activity: Keratin 20,[2]; [7],decreased
same,cytotoxicity,[2]; at 200 μM,cytotoxic
